# From paper PMC10648349, “Aromatic Diboronic Acids as Effective KPC/AmpC Inhibitors” (Molecules, 2023)
# Where “and” joins values, the source holds several entries; their conditions need not be identical. Identical values can stand only once. Like-named read-outs stand apart in the source and are kept apart here.
# Legend:
# yeasts = experiment: antifungal activity, MIC/MFC; type: cell-based; conditions: for MFC: yeasts against which fungicidal activity was noticed
# Method: (§1) Direct antimicrobial activity against Gram-negative and Gram-positive bacterial strains, as well as against yeast, was examined as previously described by the disc-diffusion test, the MIC determination assay, the MBC (for bacteria), and the MFC (for yeasts) determination tests. All the above-mentioned tests were performed according to EUCAST [71, 72] and CLSI [73, 74, 75, 76, 77] recommendations. The following reference agents were used: nitrofurantoin (for Gram-negative rods), linezolid (for Gram-positive bacteria), and fluconazole (in the case of fungi). The new aromatic diboronic acids were dissolved in DMSO (Sigma, St. Louis, MO, USA). In the disc-diffusion test, the concentration of new agents was 0.4 mg per disc. Depending on the solubility, the MIC and MBC/MFC values were determined up to 100 mg/L for 1k, up to 200 mg/L for 7c, and up to 400 mg/L for the remaining compounds: 1a–1j, 2a–2g, 3a–3f, 4a–4b, 5a–5c, 6a and 7a–7b.
# Gram-positive strains = experiment: direct antimicrobial activity, MIC; type: cell-based
# Method: as §1
# AmpC producers = experiment: microdilution with ceftazidime; type: cell-based
# Method: (§2) To examine the ability of tested agents to inhibit various carbapenemases and AmpC-enzymes, their synergy with antibiotics against β-lactamase-producing strains was assessed by checkerboard microdilution assay, with slight modification. Checkerboards were prepared in microtiter plates, with seven two-fold dilutions of β-lactams (1–64 mg/L) in the rows and three two-fold dilutions of tested agents and PBA (4–16 mg/L) in the columns. Tested agents’ concentrations were limited to the concentrations at which the newest commercially available BLIs (vaborbactam, relebactam, and avibactam) are used in susceptibility testing. Plates were inoculated and incubated as in the MIC microdilution assay. Parallel, MICs of tested agents and PBA alone were determined by the microdilution assay. Following the incubation, antibiotic MICs in the presence of each agent’s concentration were determined. Moreover, for the first well without growth found in each checkerboard row and column along the growth/non-growth interface, the fractional inhibitory concentration index (FICI) was calculated using the formula below:FICI = [(MIC of antibiotic in combination)/(MIC of antibiotic alone)] + [(MIC of the tested agent in combination)/(MIC of tested agent alone)].
# For calculations, all off-scale MICs were converted to the next-highest doubling concentration. Subsequently, both the average and the lowest FICI were interpreted. The interpretation was as follows: FICI ≤ 0.5, synergy; 0.5 < FICI ≤ 4, indifference and FICI > 4, antagonism. Primarily, examined combinations consisted of meropenem (Pol-Aura, Morag, Poland) plus tested agents against carbapenemases-producing strains and ceftazidime (Pol-Aura, Morag, Poland) plus tested agents against AmpC-producing strains. For agents that reduced meropenem MIC at least 4-fold for at least two tested strains, similar assays were performed with imipenem (Pol-Aura, Morag, Poland) and ertapenem (Pol-Aura, Morag, Poland).
# [1] = molecular target: KPC-3 in purified protein extract from E. coli 82 TR(pl 81) (Klebsiella pneumoniae, UniProt Q9F663, H272Y); experiment: nitrocefin hydrolysis test; type: biochemical; conditions: single repetitions
# Method: Overnight culture of E. coli 82 TR(pl 81) in MHB was diluted 1:100 into fresh MHB and incubated with shaking at 37 °C until an OD600 of 1 was attained. […] Further incubation was performed under the same conditions until an OD600 of 3 was reached. The culture with the required OD600 was centrifuged (6700× g, 10 min) and the supernatant was discarded. From the obtained bacterial cell pellet total proteins were extracted with the ReadyPreps™ Protein Preparation Kit (Epicentre Biotechnologies, Madison, WI, USA) and used in the subsequent nitrocefin hydrolysis test, performed in a 96-well microplate. Nitrocefin is a chromogenic cephalosporin substrate routinely used to detect the presence of β-lactamases. First, 20 μL of the protein extract was mixed with 80 μL of tested agents (1a, 2a, 3a and PBA as a reference BLI, each examined at concentrations: 4, 8 and 16 mg/L) or with 80 μL of the phosphate buffer (positive control—corresponding to KPC enzyme activity in the purified total proteins extracted from E. coli 82 TR(pl 81) cells). After 10 min of incubation at the room temperature 100 μL of the nitrocefin (Oxoid, Basingstoke, Hampshire, England) was added to reach its final concentration of 150 μM. β-lactamases hydrolyze the β-lactam ring of nitrocefin, causing its degradation and color change. Nitrocefin hydrolysis was evaluated after 3 min of the incubation at room temperature.
# As in our previous publication the presence of β-lactamases in the purified protein extract with and without tested agents was assessed by the spectrophotometric measurement of the rates of nitrocefin hydrolysis as relative absorbance at 486 nm. The level of the measured absorbance indicated β-lactamase activity. Finally, the difference in the relative absorbance between the positive control and the sample concentration of the tested inhibitors was calculated and expressed as a percentage. A reduction in the relative absorbance level in the presence of a tested agent was taken as an indicator of the BLI activity of a used aromatic diboronic acid. The experiment was performed in triplicate.
# [2] = tested on: E. coli 82 TR(pl 81), transformant carrying blaKPC-3; experiment: whole cell assay, meropenem MIC with tested agent; type: cell-based, Escherichia coli; conditions: for MIC: Escherichia coli, read-out: MIC of agent alone
# Method: as §2
# E. coli DH5α = experiment: whole cell assay, meropenem MIC with tested agent; type: cell-based, Escherichia coli
# Method: as §2
# Gram-negative rods = experiment: MIC in the presence of efflux pump inhibitor PAβN; type: cell-based; conditions: PAβN 20 mg/L
# Method: To investigate the contribution of the MDR efflux pumps to the resistance of Gram-negative rods to the newly synthesized compounds, the MIC values of studied agents, with or without the pump inhibitor, PAβN (20 mg/L) (Sigma, St. Louis, MO, USA), were evaluated. The MIC determination was performed in Mueller–Hinton II broth medium (MHB) (Becton, Dickinson and Company, Franklin Lakes, NJ, USA) using 2-fold serial dilutions of tested agents, according to the CLSI guidelines. To minimize the influence of PAβN on the destabilization of bacterial cell covers, the tests were conducted in the presence of 1 mM MgSO4 (Sigma, St. Louis, MO, USA). At least a 4-fold reduction in the MIC value after the addition of PAβN was considered significant.
# [3] = Escherichia coli; read-out: MIC of agent alone
# KPC-3 in purified protein extract from E. coli 82 TR(pl 81), sequence (Q9F663 25-293 H272Y): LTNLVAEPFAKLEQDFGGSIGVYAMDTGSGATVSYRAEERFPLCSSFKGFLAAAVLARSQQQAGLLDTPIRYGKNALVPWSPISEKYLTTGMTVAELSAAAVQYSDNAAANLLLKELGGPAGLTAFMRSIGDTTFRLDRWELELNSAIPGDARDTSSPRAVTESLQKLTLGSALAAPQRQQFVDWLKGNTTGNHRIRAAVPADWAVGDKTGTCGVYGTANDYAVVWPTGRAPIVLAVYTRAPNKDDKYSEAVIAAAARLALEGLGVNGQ
smiles,measurement,setting,value
OB(O)c1cc(Br)c(B(O)O)cc1Br [1i],MIC,yeasts; moderate antifungal activity,6.25 to 50 µg/mL
"OB(O)c1ccccc1S [7c, 2-mercaptophenylboronic acid]",MFC,yeasts,25 to 200 µg/mL
same,MIC,Gram-positive strains; all tested coccis,12.5 to 25 µg/mL
"OB(O)c1ccc(B(O)O)c(B(O)O)c1 [4b, benzene-1,2,4-triboronic]","ceftazidime MIC reduction, up to",AmpC producers; agent 4 mg/L,≤ 2 fold
same,"ceftazidime MIC reduction, up to",AmpC producers; agent 8 mg/L,up to 4 fold
same,"ceftazidime MIC reduction, up to",AmpC producers; agent 16 mg/L,≤ 8 fold
"OB(O)c1ccsc1B(O)O [5a, thiophene-2,3-diboronic acid]","ceftazidime MIC reduction, up to",AmpC producers; agent 4 mg/L,≤ 2 fold
same,"ceftazidime MIC reduction, up to",AmpC producers; agent 8 mg/L,up to 4 fold
same,"ceftazidime MIC reduction, up to",AmpC producers; agent 16 mg/L,≤ 8 fold
OB(O)c1cccc(B(O)O)c1 [2a],"Relative absorbance (nitrocefin hydrolysis, 486 nm)",[1]; agent 4 mg/L,1.605 and 1.649 and 1.595
same,"Relative absorbance (nitrocefin hydrolysis, 486 nm)",[1]; agent 8 mg/L,1.520 and 1.499 and 1.528
same,"Relative absorbance (nitrocefin hydrolysis, 486 nm)",[1]; agent 16 mg/L,1.377 and 1.274 and 1.280
same,MIC,[2],> 400 µg/mL
same,MIC of meropenem in combination with agent,[2]; agent 4 mg/L,1 µg/mL
same,MIC of meropenem in combination with agent,[2]; agent 8 mg/L,1 µg/mL
same,MIC of meropenem in combination with agent,[2]; agent 16 mg/L,1 µg/mL
same,meropenem MIC reduction,"[2]; agent 4, 8 and 16 mg/L",2 fold
same,MIC,E. coli DH5α; [3],> 400 µg/mL
same,MIC of meropenem in combination with agent,E. coli DH5α; agent 16 mg/L,0.016 µg/mL
OB(O)c1cc(C(F)(F)F)cc(B(O)O)c1F [2e],reduction of MIC in the presence of PAβN,Gram-negative rods,4–16 fold
same,MIC,Gram-positive strains; enterococci,50 to 100 µg/mL
same,MIC,Gram-positive strains; staphylococci,0.78 to 12.5 µg/mL
OB(O)c1ccc(C(F)(F)F)cc1B(O)O [3e],MIC,yeasts; most Candida spp.,3.12 to 6.25 µg/mL
same,MFC,yeasts,400 µg/mL
same,reduction of MIC in the presence of PAβN,Gram-negative rods,4–16 fold
"OB(O)c1ccccc1 [PBA, phenylboronic acid, reference compound]","Relative absorbance (nitrocefin hydrolysis, 486 nm)",[1]; agent 4 mg/L,1.093 and 1.087 and 1.232
same,"Relative absorbance (nitrocefin hydrolysis, 486 nm)",[1]; agent 8 mg/L,1.183 and 1.165 and 1.117
same,"Relative absorbance (nitrocefin hydrolysis, 486 nm)",[1]; agent 16 mg/L,0.975 and 0.933 and 0.957
same,MIC,[2],> 400 µg/mL
same,MIC of meropenem in combination with agent,[2]; agent 4 mg/L,0.50 µg/mL
same,MIC of meropenem in combination with agent,[2]; agent 8 mg/L,0.25 µg/mL
same,MIC of meropenem in combination with agent,[2]; agent 16 mg/L,0.25 µg/mL
same,MIC,"E. coli DH5α; Escherichia coli, read-out: MIC of agent alone",> 400 µg/mL
same,MIC of meropenem in combination with agent,E. coli DH5α; agent 16 mg/L,0.016 µg/mL
OB(O)c1ccc(B(O)O)c(F)c1F [1c],MIC,Gram-positive strains; enterococci,100 to 400 µg/mL
same,MIC,Gram-positive strains; staphylococci,12.5 to 50 µg/mL
OB(O)c1ccc(B(O)O)cc1 [1a],"Relative absorbance (nitrocefin hydrolysis, 486 nm)",[1]; agent 4 mg/L,1.348 and 1.320 and 1.308
same,"Relative absorbance (nitrocefin hydrolysis, 486 nm)",[1]; agent 8 mg/L,1.214 and 1.079 and 1.201
same,"Relative absorbance (nitrocefin hydrolysis, 486 nm)",[1]; agent 16 mg/L,0.998 and 1.066 and 1.076
same,MIC,[2],> 400 µg/mL
same,MIC of meropenem in combination with agent,[2]; agent 4 mg/L,0.50 µg/mL
same,MIC of meropenem in combination with agent,[2]; agent 8 mg/L,0.25 µg/mL
same,MIC of meropenem in combination with agent,[2]; agent 16 mg/L,0.125 µg/mL
same,MIC,E. coli DH5α; [3],> 400 µg/mL
same,MIC of meropenem in combination with agent,E. coli DH5α; agent 16 mg/L,0.016 µg/mL
"OB(O)c1cc(F)ccc1F [7a, 2,5-difluorophenylboronic acid]","ceftazidime MIC reduction, up to",AmpC producers; agent 4 mg/L,≤ 8 fold
same,"ceftazidime MIC reduction, up to",AmpC producers; agent 8 mg/L,up to 16 fold
same,"ceftazidime MIC reduction, up to",AmpC producers; agent 16 mg/L,up to 32 fold
OB(O)c1cc(F)c(B(O)O)cc1F [1e],MIC,Gram-positive strains; enterococci,100 to 400 µg/mL
same,MIC,Gram-positive strains; staphylococci,12.5 to 50 µg/mL
O=Cc1cc(F)ccc1B(O)O [7b],reduction of MIC in the presence of PAβN,Gram-negative rods,4–16 fold
same,MIC,Gram-positive strains; enterococci,100 to 400 µg/mL
same,MIC,Gram-positive strains; staphylococci,12.5 to 50 µg/mL
"OB(O)c1ccccc1B(O)O [3a, phenylene-1,2-diboronic acid]","ceftazidime MIC reduction, up to",AmpC producers; agent 4 mg/L,≤ 2 fold
same,"ceftazidime MIC reduction, up to",AmpC producers; agent 8 mg/L,up to 4 fold
same,"ceftazidime MIC reduction, up to",AmpC producers; agent 16 mg/L,≤ 8 fold
same,"Relative absorbance (nitrocefin hydrolysis, 486 nm)",[1]; agent 4 mg/L,1.451 and 1.436 and 1.174
same,"Relative absorbance (nitrocefin hydrolysis, 486 nm)",[1]; agent 8 mg/L,1.305 and 1.279 and 1.249
same,"Relative absorbance (nitrocefin hydrolysis, 486 nm)",[1]; agent 16 mg/L,1.090 and 1.114 and 1.077
same,MIC of meropenem in combination with agent,[2]; agent 4 mg/L,0.50 µg/mL
same,meropenem MIC reduction,[2]; agent 4 mg/L,4 fold
same,MIC of meropenem in combination with agent,[2]; agent 8 mg/L,0.125 µg/mL
same,meropenem MIC reduction,[2]; agent 8 mg/L,16 fold
same,MIC of meropenem in combination with agent,[2]; agent 16 mg/L,0.062 µg/mL
same,meropenem MIC reduction,[2]; agent 16 mg/L,32 fold
same,MIC,E. coli DH5α; [3],400 µg/mL
same,MIC of meropenem in combination with agent,E. coli DH5α; agent 16 mg/L,0.016 µg/mL
OB(O)c1cccc(F)c1B(O)O [3b],"ceftazidime MIC reduction, up to",AmpC producers; agent 4 mg/L,≤ 2 fold
same,"ceftazidime MIC reduction, up to",AmpC producers; agent 8 mg/L,up to 4 fold
same,"ceftazidime MIC reduction, up to",AmpC producers; agent 16 mg/L,≤ 8 fold
